The results in this text go back to patent publication US4424351A, “Pyrido[3,4-e]-as-triazines” (Egyt Gyogyszervegyeszeti Gyar, priority 1979, dated 1984).

One series is described as follows: in vivo. Particulars: mouse, mice, oral. How it is done:
The acute toxicity of the new compounds having the general formula (I) was tested on mice. The substances to be tested were administered orally to the animals.

Series [1] has as its system mice. The series is described as follows: analgesic effect, writhing test (acetic acid i.p.). In kind it is in vivo. As to conditions: for Therapeutical index (LD50/ED50), analgesic effect: LD50/ED50, writhing test, mice p.o.; for ED50: Mus musculus, mice, oral 1 h before 0.4 ml of 0.5% acetic acid i.p., dosage decreasing number of writhings by 50%, read-out: ED50 p.o. (analgesic effect). As to the method:
The analgesic effect of the new compounds according to the invention was investigated on mice by the so-called writhing test. […] The animals were treated orally with the compound to be tested one hour before the introduction of acetic acid. The animals belonging to the control group received vehicle only.
(In general: An intraperitoneal irritant provokes the stretching counted in writhing tests.)

The test system of a further series is rats. The experiment in a line: antiphlogistic effect, carrageenine-induced paw swelling (method of Winter). In kind it is in vivo. Particulars: Rattus norvegicus, oral, paw volume before and 3 h after 0.1 ml 1% carrageenine, read-out: Dosage exerting 30% inhibition (antiphlogistic effect). As to the method: The antiphlogistic effect of the new compounds according to the invention was investigated on rats by the method of Winter (J. Pharm. Exp. […] The volume of the treated paw was measured by […] before and 3 hours after challenge. The compounds to be tested were administered orally into the animals.
In general terms: The carrageenan paw model is a standard test of acute inflammation.

Series [2] deals with mice. The experiment in a line: potentiation of hexobarbital-induced narcosis (method of Kaergaard et al.). In kind it is in vivo. Particulars: for Therapeutical index (LD50/ED50), potentiation of hexobarbital-induced narcosis: LD50/ED50, mice p.o.; for ED50: Mus musculus, mice, oral, then 40 mg/kg hexobarbital i.v., 150% prolongation of sleeping time = positive, read-out: ED50 p.o. (potentiation of hexobarbital-induced narcosis). How it is done:
The hexobarbital-induced narcosis potentiating effect of the new compounds was tested by the method of Kaergaard et al. (Arch. Int. Pharmacodyn. 2, 170 /1967/) on groups consisting of 6 mice each. The animals belonging to the control group received an oral dosage of 20 ml/kg of 0.9% aqueous sodium chloride solution, whereas the other animals were treated orally with the compound to be tested. Thereafter 40 mg/kg of hexobarbital (5-/1-cyclohexenyl/-[…]) were administered intravenously into the animals. A 150% prolongation of the sleeping time, related to the average value observed in the controls, was regarded as positive response. The number of animals giving positive response was compared to the total number of the animals treated.

Series [3] has as its system animals treated with tetrabenazine. The series is described as follows: tetrabenazine-antagonizing effect (closed palpebral fissures). As to conditions: for ED50: Mus musculus, oral, 30 min before 50 mg/kg tetrabenazine p.o., readings at 30, 60, 90 and 120 min summed; for Therapeutical index (LD50/ED50), tetrabenazine-antagonizing effect: LD50/ED50, p.o. The format is in vivo. As to the method:
The tetrabenzine-antagonizing effect of the new compounds was tested on groups consisting of 10 mice each. The animals belonging to the control group received an oral dosage of 20 ml/kg of 0.9% aqueous sodium chloride solution, whereas the other animals were treated orally with the compound to be tested. 30 minutes after the introduction of the active agent or the vehicle 50 mg/kg of tetrabenazine (3-isobutyl-9,10-[…]-1,2,3,4,6,7-hexahydrobenzo[a]quinolisine-2-one) were administered orally into the animals, and the animals with closed palpebral fissures were counted 30, 60, 90 and 120 minutes after the administration of tetrabenazine. The data obtained in the individual measuring times were added, and the percentage inhibition related to the controls was calculated.

For the next series, the system named is white mice. The series is described as follows: motility inhibiting effect (orientation reflex, eight-channel Dews apparatus). The format is in vivo. Particulars: for Therapeutical index (LD50/ED50), motility inhibiting effect: LD50/ED50, Dews apparatus, mice p.o.; for ED50: Mus musculus, 0.5 h, white mice, oral, pre-treatment of 30 minutes, light beam interceptions, read-out: ED50 p.o. (motility inhibiting effect). As to the method:
The effect of the new compounds exerted on the orientation reflex was tested on white mice in an eight-channel Dews apparatus, according to the method of Borsy et al. (Arch. Int. Pharmacodyn. 124, 1-2 /1960/). The number of light beam interceptions, caused by the movement of the animals, was recorded after a pre-treatment of 30 minutes. The test groups consisted of 3 mice. The ED50 values obtained in the investigation of motility-inhibiting effect, furthermore the therapeutical indices (LD50 /ED50) calculated therefrom are listed in Table 4.

Structures are written as SMILES.

Usually LD50 stands for the dose at which mortality reaches 50%. Read a high LD50 as a less toxic substance. For orientation: ED50 means the midpoint of the dose-response relation.

Consider `CCC(=O)N1C=NN(C(=O)CC)c2ccncc21` [Example 18, 1,4-dipropioyl-1,4-dihydropyrido[3,4-e]-as-triazine], for which the LD50 in the series “in vivo” came out at 450 mg/kg. In the series on mice [1], the “Therapeutical index (LD50/ED50), analgesic effect” value was 75 and the ED50 came to 6 mg/kg. In addition, in the series on rats, the ED30 was 12 mg/kg.

Molecule `CC(=O)N1C=NN(C(C)=O)c2ccncc21` [Example 1, 1,4-diacetyl-1,4-dihydropyrido[3,4-e]-as-triazine] showed an LD50 in “in vivo” of 360 mg/kg. Besides, in the series with rats, the ED30 came to 25 mg/kg. In addition, in the series with mice [2], the “Therapeutical index (LD50/ED50), potentiation of hexobarbital-induced narcosis” value turned out to be 11.4 and the ED50 is 25 mg/kg.

Take `CCCCC1C(=O)N(c2ccccc2)N(c2ccccc2)C1=O` [Phenylbutazone, reference compound]: in the series on mice [1], the ED50 was 65 mg/kg. In addition, in the series on rats, the ED30 amounted to 90 mg/kg.

In turn, `CN(C)CCC=C1c2ccccc2CCc2ccccc21` [Amitryptiline, reference compound] returned an ED50 in series [3] of 12 mg/kg.

Take `CCCC(=O)N1N=C(c2ccccc2)Nc2cnccc21` [Example 19, 3-phenyl-1-butyryl-1,4-dihydropyrido[3,4-e]-as-triazine]: the LD50 in “in vivo” stood at 1500 mg/kg. In the series on mice [1], the “Therapeutical index (LD50/ED50), analgesic effect” value is recorded as 20 and the ED50 stood at 75 mg/kg. In addition, in the series with rats, the ED30 was 13 mg/kg. Also, in the series on white mice, the “Therapeutical index (LD50/ED50), motility inhibiting effect” value is on record as 16.67 and the ED50 was found to be 90 mg/kg. Further, in series [3], the “Therapeutical index (LD50/ED50), tetrabenazine-antagonizing effect” value came out at 75 and the ED50 was found to be 20 mg/kg. In the series on mice [2], the “Therapeutical index (LD50/ED50), potentiation of hexobarbital-induced narcosis” value is recorded as 10 and the ED50 turned out to be 150 mg/kg.

In “in vivo”, `CC(=O)N1N=C(c2ccccc2)Nc2cnccc21` [Example 17, 3-phenyl-1-acetyl-1,4-dihydropyrido[3,4-e]-as-triazine] had an LD50 of 1400 mg/kg. Moreover, in the series on mice [1], the “Therapeutical index (LD50/ED50), analgesic effect” value stood at 60.87 and the 50% effective dose (ED50) came to 23 mg/kg. Also, in the series with white mice, the “Therapeutical index (LD50/ED50), motility inhibiting effect” value is 46.67 and the ED50 is 30 mg/kg. In series [3], the “Therapeutical index (LD50/ED50), tetrabenazine-antagonizing effect” value turned out to be 25 and the ED50 stood at 56 mg/kg. For the same molecule, in the series on mice [2], the “Therapeutical index (LD50/ED50), potentiation of hexobarbital-induced narcosis” value is given as 40 and the ED50 turned out to be 35 mg/kg.

For `CCCC(C)(COC(N)=O)COC(N)=O` [Meprobamate, reference compound], in the series on white mice, the “Therapeutical index (LD50/ED50), motility inhibiting effect” value turned out to be 14.1 and the ED50 came out at 270 mg/kg. In the series on mice [2], the “Therapeutical index (LD50/ED50), potentiation of hexobarbital-induced narcosis” value is listed as 4.1 and the median effective dose (ED50) was determined as 270 mg/kg.

Molecule `CCC(=O)N1N=C(c2ccccc2)Nc2cnccc21.Cl` [12 (HCl), 3-phenyl-1-propionyl-1,4-dihydro-pyrido[3,4-e]-as-triazine hydrochloride] registered an LD50 in the series “in vivo” of 2000 mg/kg. The ED30 with rats was found to be 30 mg/kg. In the series on white mice, the “Therapeutical index (LD50/ED50), motility inhibiting effect” value was 40 and the ED50 came to 50 mg/kg. Further, in series [3], the “Therapeutical index (LD50/ED50), tetrabenazine-antagonizing effect” value is listed as 50 and the ED50 stood at 40 mg/kg. In the series with mice [2], the “Therapeutical index (LD50/ED50), potentiation of hexobarbital-induced narcosis” value amounted to 200 and the ED50 came out at 10 mg/kg.

Consider `CCC(=O)N1N=C(C)Nc2cnccc21` [Example 11, 3-Methyl-1-propionyl-1,4-dihydropyrido[3,4-e]-as-triazine], for which the LD50 in the series “in vivo” came to 500 mg/kg. Also, the ED30 in the series on rats turned out to be 30 mg/kg. Moreover, in the series with mice [2], the “Therapeutical index (LD50/ED50), potentiation of hexobarbital-induced narcosis” value came out at 25 and the median effective dose (ED50) came out at 20 mg/kg.

In turn, `CCC(=O)N1N=C(c2ccccc2)Nc2cnccc21` [Example 12, 3-phenyl-1-propionyl-1,4-dihydropyrido[3,4-e]-as-triazine] displayed an LD50 in the series “in vivo” of over 2000 mg/kg. For the same molecule, in the series with mice [1], the “Therapeutical index (LD50/ED50), analgesic effect” value is reported as “above 40” and the ED50 came out at 50 mg/kg. In addition, the ED30 in the series with rats is 26 mg/kg. In the series on white mice, the “Therapeutical index (LD50/ED50), motility inhibiting effect” value was over 57.4 and the ED50 was 35 mg/kg. In the series on mice [2], the “Therapeutical index (LD50/ED50), potentiation of hexobarbital-induced narcosis” value is 32.3 and the ED50 was determined as 62 mg/kg.
